In patent publication US20240189442A1, “TARGETING CONJUGATES WITH THERAPEUTIC AGENTS AND OLIGONUCLEOTIDES AND USES THEREOF” (Allygen Group, priority 2021, published 2024):
Non-standard residues stand in square brackets, D forms with d. Primed or numbered codes have the meaning given here. No end group written: not given here. PEG12′ = NH2-(PEG)12 moiety

What was measured:
CathepsinB = CathepsinB (Homo sapiens, UniProt P07858); test: Digestion of the drug-linkers by CathepsinB; format: biochemical; conditions: 125 nM enzyme, 62.5 μM drug-linker, pH 5.5, 37° C., 3 hours
Protocol: To simulate the release of drug under physiological conditions, the drug-linkers were subjected to cleavage by CathepsinB, after which an elimination reaction occurred and unmodified drug was released.
Lyophilized CathepsinB enzyme powder was dissolved in 130 μL of pure water, and divided into 13 tubes of 10 μL each. At this time, the concentration of each tube was 0.15 mg/ml (4.15 μM). Activation buffer (20 mM sodium acetate, 30 mM DTT, 15 mM EDTA, pH 5.5) was then added to a tube of enzyme to activate the enzyme for 1 hour at room temperature. The activated enzyme was diluted to 125 nM with enzyme digestion buffer (25 mM sodium acetate, 1 mM EDTA, pH 5.5). Drug-linkers were added to the activated enzyme to a final concentration of 62.5 μM, and incubated at 37° C. for 3 hours.

[1] = Stability of Compound of Formula (1) and (2) in buffer; format: physicochemical
Protocol: Preparation of 20 mM phosphate buffer with pH=7.4 (in 1 L): 8.0 g sodium chloride, 0.2 g potassium chloride, 7.3 g disodium hydrogen phosphate dodecahydrate, and 0.48 g potassium dihydrogen phosphate was dissolved in water and dilute to 1 L at pH 7.4.
The buffer was adjusted to pH 9.0, 7.0 and 5.0 with saturated phosphoric acid solution and sodium hydroxide solution. […] The solution pH was adjusted back to 5, and shaken overnight at room temperature (16 h) before testing.

[2] = Stability of Compound of Formula (1) and (2) in plasma; format: in vitro ADME; conditions: pH 7.4, 0.5 mg/mL
Protocol: Preparation of protein precipitation solution: 1 g NaCl was added to 3 mL methanol and 5 mL acetonitrile, stirred for 1 h, and then allowed to stand at room temperature for 1 h before use.
200 μL protein precipitation solution was then added to the reaction solution and centrifuged at 8000 g for 10 min. The supernatant was collected for analysis.

HCT15-hPDL1 cells = test: In vitro cytotoxicity study, CellTiter-Glo Luminescent Cell Viability Assay; format: cell-based, Human; conditions: 5 days exposure
Protocol: The cell line was named as HCT15-hPDL1. Cells were cultured at 37° C. with 5% C02 using RPMI1640 medium supplemented with 10% FBS, plus 1 μg/ml of puromycin.
The in vitro anti-tumor activity was determined by CellTiter-Glo® Luminescent Cell Viability Assay (Promega) according to the manufacturer's instructions. Briefly, cells were seeded into 96-well plates at 2×10^3 cells per well in 100 μL complete medium, then incubated at 37° C. with 5% CO2 overnight. Untreated cells served as control. ADCs, antibodies, or payloads in 100 μL medium were added in duplicate at various concentrations with a 2-fold dilution series starting with concentrations of 1 uM, respectively. Cells were exposed to test articles for 5 days. […]. The cell survival rate (%) was calculated using the following formula: sample/control×100%.

[3] = Stability of SN-38 (lactone / ring-opened form) at different pH; format: physicochemical
Protocol: A hydrochloric acid solution with a pH of 4 and a sodium hydroxide solution with a pH of 10 were prepared respectively. 5 mg of SN-38 was dissolved in 5 mL of acetonitrile. The stability of SN-38 in a solution of changing pH (pH=10 to pH=4) was measured by shaking SN-38 at room temperature under pH=10 for 10 min, then adjusting the pH back to 4 and shake at room temperature for 10 min before sampling. SN-38 was then incubated at room temperature overnight (16 h) on a shaker and assayed afterwards.

[4] = molecular target: T1, TLR9 (HEK-Blue hTLR9-hPDL1 cells) (Homo sapiens, UniProt Q9NR96); test: In vitro TLR9 activation study, SEAP reporter; format: cell-based; conditions: 18 hr incubation, OD 655 nm; read-out: HEK-Blue hTLR9-hPDL1 cell EC50
T1 construct: expressed in transfected cells; host or cells: HEK-Blue hTLR9-hPDL1 (HEK-Blue hTLR9 cells carrying lentiviral human PD-L1, NM_014143)
T1 sequence (Q9NR96 26-1032): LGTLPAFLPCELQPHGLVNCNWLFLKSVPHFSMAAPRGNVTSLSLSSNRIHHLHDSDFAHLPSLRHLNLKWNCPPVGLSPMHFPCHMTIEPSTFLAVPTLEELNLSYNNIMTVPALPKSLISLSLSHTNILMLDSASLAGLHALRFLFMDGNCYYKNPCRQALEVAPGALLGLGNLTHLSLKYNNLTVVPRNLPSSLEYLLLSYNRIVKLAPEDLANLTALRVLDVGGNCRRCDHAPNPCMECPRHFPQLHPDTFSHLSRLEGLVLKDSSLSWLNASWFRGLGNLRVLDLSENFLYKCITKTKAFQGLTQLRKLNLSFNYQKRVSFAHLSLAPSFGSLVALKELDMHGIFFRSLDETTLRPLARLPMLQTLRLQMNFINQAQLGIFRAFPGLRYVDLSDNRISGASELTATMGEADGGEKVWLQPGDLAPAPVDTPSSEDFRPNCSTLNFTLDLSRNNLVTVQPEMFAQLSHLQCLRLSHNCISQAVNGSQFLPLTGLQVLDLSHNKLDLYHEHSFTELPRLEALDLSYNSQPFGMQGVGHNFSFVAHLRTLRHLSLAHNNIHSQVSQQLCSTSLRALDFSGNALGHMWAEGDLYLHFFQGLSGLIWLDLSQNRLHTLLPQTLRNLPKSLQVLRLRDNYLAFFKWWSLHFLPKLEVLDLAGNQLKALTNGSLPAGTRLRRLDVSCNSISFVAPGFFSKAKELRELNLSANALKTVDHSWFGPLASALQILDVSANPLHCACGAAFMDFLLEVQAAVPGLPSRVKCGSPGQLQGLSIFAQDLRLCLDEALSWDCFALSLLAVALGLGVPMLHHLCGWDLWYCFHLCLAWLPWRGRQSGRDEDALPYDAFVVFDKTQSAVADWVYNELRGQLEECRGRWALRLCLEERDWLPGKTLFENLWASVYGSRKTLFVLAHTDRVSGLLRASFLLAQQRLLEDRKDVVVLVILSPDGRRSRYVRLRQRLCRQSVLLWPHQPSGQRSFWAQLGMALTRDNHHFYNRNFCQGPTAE
Excerpt: Data were normalized with untreated cells as zero.

[5] = molecular target: Urokinase-type Plasminogen Activator (uPA) (Homo sapiens, UniProt P00749); test: uPA cleavage of substrate peptides measured by FRET; format: biochemical; conditions: uPA 7.5 × 10^−3 mg/mL, peptide 0.5 mg/mL, PBS pH=7.4
Protocol: (§1) All peptide solutions were finally diluted to 50 μL with 20 mM PBS at pH=7.4.

[6] = molecular target: Tissue-type Plasminogen Activator (tPA) (Homo sapiens, UniProt P00750); test: tPA digestion of substrate peptides measured by FRET; format: biochemical
Protocol: as §1

antibody Ab2B = test: Biacore affinities between TBP and antibody; format: binding
Protocol: Anti-human Fab was ligated to Biacore chips at pH 4.5. […] TBPs were flowed through the chip as analytes at 30 μL/min. 10 mM glycine at pH 1.5 was used for regeneration of the chip. Conditions were optimized as needed.

[7] = alkaline conditions for 10 minutes, then acidic conditions before testing
[8] = pH 10 to pH 4, after incubation overnight (16 h)

Sequence of Tissue-type Plasminogen Activator (tPA) (P00750 36-562, species assumed): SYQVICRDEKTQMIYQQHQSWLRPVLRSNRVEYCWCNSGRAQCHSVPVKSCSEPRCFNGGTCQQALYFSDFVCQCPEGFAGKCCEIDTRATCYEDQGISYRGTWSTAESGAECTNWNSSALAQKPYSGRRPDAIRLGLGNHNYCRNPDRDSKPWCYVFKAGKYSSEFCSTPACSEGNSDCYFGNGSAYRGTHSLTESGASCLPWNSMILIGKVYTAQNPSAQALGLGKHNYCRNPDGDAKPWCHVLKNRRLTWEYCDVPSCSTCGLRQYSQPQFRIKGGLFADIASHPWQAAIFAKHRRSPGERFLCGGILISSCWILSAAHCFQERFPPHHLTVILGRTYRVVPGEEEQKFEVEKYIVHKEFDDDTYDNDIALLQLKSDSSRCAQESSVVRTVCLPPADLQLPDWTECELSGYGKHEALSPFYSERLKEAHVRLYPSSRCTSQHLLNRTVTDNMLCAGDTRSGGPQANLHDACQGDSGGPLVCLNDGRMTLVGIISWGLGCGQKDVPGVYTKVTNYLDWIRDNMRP
Sequence of antibody Ab2B (as listed by the source): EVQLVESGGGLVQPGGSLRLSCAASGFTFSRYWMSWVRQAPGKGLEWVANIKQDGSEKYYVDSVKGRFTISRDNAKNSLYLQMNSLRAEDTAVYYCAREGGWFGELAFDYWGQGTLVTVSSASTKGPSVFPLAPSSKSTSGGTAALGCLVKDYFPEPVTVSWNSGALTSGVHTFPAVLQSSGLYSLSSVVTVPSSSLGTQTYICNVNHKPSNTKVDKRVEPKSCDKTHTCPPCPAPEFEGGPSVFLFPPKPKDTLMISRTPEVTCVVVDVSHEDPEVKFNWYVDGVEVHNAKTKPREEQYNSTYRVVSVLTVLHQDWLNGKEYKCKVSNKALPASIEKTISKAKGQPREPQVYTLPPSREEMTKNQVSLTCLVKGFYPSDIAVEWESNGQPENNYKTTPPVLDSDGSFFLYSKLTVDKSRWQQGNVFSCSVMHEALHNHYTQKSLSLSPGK
Sequence of antibody Ab2B (as listed by the source partner): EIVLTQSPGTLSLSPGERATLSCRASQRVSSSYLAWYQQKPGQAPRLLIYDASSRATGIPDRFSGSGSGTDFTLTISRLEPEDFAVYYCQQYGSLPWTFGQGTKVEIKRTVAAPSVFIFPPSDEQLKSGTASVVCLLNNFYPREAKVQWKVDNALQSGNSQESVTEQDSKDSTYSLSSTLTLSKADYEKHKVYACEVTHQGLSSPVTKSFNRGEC

In the case of `CCc1c2c(nc3ccc(O)cc13)-c1cc3c(c(=O)n1C2)COC(=O)[C@@]3(CC)OC(=O)N(C)CCN(C)C(=O)OCc1ccc(NC(=O)[C@H](CCCNC(N)=O)NC(=O)[C@@H](NC(=O)CCOCCOCCOCCOCCOCCOCCOCCOCCCNC(=O)CNC(=O)CNC(=O)CN)C(C)C)cc1` [Compound of Formula (2), Glycine3-amido-PEG8-VC-PAB-DMAE-α-hydroxy lactone linked SN38], the “CathepsinB digestion (in words)” value (CathepsinB) is reported as “effectively digested”, the “Product released on CathepsinB digestion” value (CathepsinB) is reported as “release SN38 derivatives” and the “Present in the form of lactones in buffer” value ([1]; buffer, less affected by pH) is reported as 98%. For the same compound, the “Stability in plasma (in words)” value [2] was “mainly in the form of lactones in the plasma” and the IC50 (HCT15-hPDL1 cells; Homo sapiens, 120 h) was 38.1 nM.
In the case of `CCc1c2c(nc3ccc(O)cc13)-c1cc3c(c(=O)n1C2)COC(=O)[C@]3(O)CC` [SN38, 7-ethyl-10-hydroxy-20(S)-camptothecin], the Present as lactone ([3]; acidic conditions (pH 4)) is reported as 94%, the “Present as lactone ring-opened form” value ([3]; alkaline conditions (pH 10)) is reported as 92% and the Lactone ring-opening products [3, 7] is reported as 42%. The “Present in the form of lactone” value [3, 7] was 56%, the Lactone ring-opening products [3, 8] was 13% and the “Present in the form of lactone” value [3, 8] was 86%. It also gave an IC50 (HCT15-hPDL1 cells; Homo sapiens, 120 h) of 11.2 nM.
Compound “CpGB: CpG ODN CpGB, used as positive control and as component of Ab3A ADOC (DNA TCGAACGTTCGAACGTTCGAACGTTCGAAT; DNA, all phosphorothioate, methylation of C not given here)” has an EC50 [4] of 11500 nM.
With “GSGRNAQV [SEQ ID NO: 54, uPA substrate peptide]” the “Fluorescence Intensity Time to Reach Plateau” value (“Fluorescence Intensity Time” below) [5] was 1.4 h and the “tPA digestion (in words)” value ([6]; tPA […]10^−2 mg/mL) was “digested”.
In the case of “Glycine3-amido-PEG8-VC-PAB-DMAE-phenol linked SN38 [Compound of Formula (1)]”, the “CathepsinB digestion (in words)” value (CathepsinB) is reported as “effectively digested”, the “Product released on CathepsinB digestion” value (CathepsinB) is reported as “release SN38” and the “Present in the form of lactones” value ([1]; acidic conditions (pH 5 buffer)) is reported as 88%. For the same compound, the “Present as lactones in the form of ring opening” value ([1]; alkaline conditions (pH 9 buffer)) was 92%, the “Present in the form of lactones” value ([1]; alkaline conditions for 10 minutes, then acidic conditions (pH 9 to 5)) was 98% and the “Stability in plasma (in words)” value [2] was “partially hydrolyzed in plasma”. For the same compound, the IC50 (HCT15-hPDL1 cells) was greater than 300 nM.
With “LGGSGRNAQVRLE [SEQ ID NO: 53, uPA substrate peptide]” the “Fluorescence Intensity Time” value [5] was 1.6 h.
For “LGGSGRSANAILE [SEQ ID NO: 52, uPA substrate peptide]”, the “Fluorescence Intensity Time” value [5] was 1.4 h, the “tPA digestion (in words)” value ([6]; tPA 7.5×10^−3 mg/mL) was “mildly digested” and the “tPA digestion (in words)” value ([6]; tPA […]10^−2 mg/mL) was “digested”.
In the case of LSGRSDNH [SEQ ID NO: 50], the “Fluorescence Intensity Time” value [5] is reported as 1.7 h.
In the case of “SEQ ID NO: 151 ([PEG12′]RSQSRSRYYRQRQRSRRRRRRS)”, the “Binding to Ab2B (in words)” value (antibody Ab2B) is reported as “did not bind to Ab2B”.
For SGRSA [SEQ ID NO: 51], the “Fluorescence Intensity Time” value [5] was 1.8 h, the “tPA digestion (in words)” value ([6]; tPA 7.5×10^−3 mg/mL) was “mildly digested” and the “tPA digestion (in words)” value ([6]; tPA […]10^−2 mg/mL) was “digested”.
